# Test results taken from patent US20230086702A1, “SUBSTITUTED 2-AMINO-PYRAZOLYL-[1,2,4]TRIAZOLO[1,5A]PYRIDINE DERIVATIVES AND USE THEREOF” (The Johns Hopkins University, priority 2019, published 2023).
# Experiments:
# LZK = target: T1, LZK (Homo sapiens, UniProt O43283); assay: LZK biochemical assay (TR-FRET, MKK7 phosphorylation)
# T1 construct: 10 nM LZK, catalytic domain, Carna Biosiences in assay buffer; purchased Carna Biosciences ('Carna Biosiences' [sic])
# T1 sequence (O43283 168-409 limits assumed): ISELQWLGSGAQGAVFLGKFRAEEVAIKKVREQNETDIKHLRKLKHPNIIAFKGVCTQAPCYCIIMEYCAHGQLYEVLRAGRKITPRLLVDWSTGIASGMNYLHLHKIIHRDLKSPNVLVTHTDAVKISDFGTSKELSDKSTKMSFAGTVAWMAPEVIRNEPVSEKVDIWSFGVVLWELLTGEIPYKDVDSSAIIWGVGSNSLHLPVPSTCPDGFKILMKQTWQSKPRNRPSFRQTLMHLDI
# How it was run: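 Read-out is HTRF: Eu-labelled anti-phospho-MKK7 (T275/S277) and XL665 anti-His, incubated 16 h at 32 °C, with a drop in signal marking inhibition. Reaction beforehand: 10 nM LZK kinase domain, 15 nM His-MKK7, 15 µM ATP (final) for 90 min at room temperature, pH 7.5.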
# DLK = target: T2, DLK (Homo sapiens, UniProt Q12852); assay: DLK biochemical assay (TR-FRET, MKK7 phosphorylation)
# T2 construct: 10 nM DLK, catalytic domain, Carna Biosiences; purchased Carna Biosciences ('Carna Biosiences' [sic])
# T2 sequence (Q12852 125-366 limits assumed): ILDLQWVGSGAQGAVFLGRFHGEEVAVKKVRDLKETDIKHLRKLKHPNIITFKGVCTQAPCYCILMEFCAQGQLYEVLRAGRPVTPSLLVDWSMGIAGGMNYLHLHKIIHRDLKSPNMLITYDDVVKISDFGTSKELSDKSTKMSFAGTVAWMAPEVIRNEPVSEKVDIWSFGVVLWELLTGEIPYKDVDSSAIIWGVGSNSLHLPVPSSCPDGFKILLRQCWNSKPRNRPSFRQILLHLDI
# How it was run: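 TR-FRET read-out (665/Eu ratio) of MKK7 T275/S277 phosphorylation, with inhibition lowering the signal. Final conditions: 10 nM DLK catalytic domain, 15 nM MKK7, 60 μM ATP, 90 min at RT. Detection incubation 16 h at 37° C in 1536-well or 4° C in 384-well format.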
smiles,measurement,setting,value
"CS(=O)(=O)c1cccc(-c2cc(-c3cnn(C(c4ccc(C(F)(F)F)nc4)C4CCOCC4)c3)cn3nc(N)nc23)c1 (single isomer, unassigned) [II-15, 8-[3-(Methylsulfonyl)phenyl]-6-(1-{tetrahydro-2H-pyran-4-yl[6-(trifluoromethyl)pyridin-3-yl]methyl}-1H-pyrazol-4-yl)[1,2,4]triazolo[1,5-a]pyridin-2-amine]",IC50,LZK,2.7 nM
same,IC50,DLK,0.9 nM
"CC[C@@H](c1ccccc1)n1cc(-c2cc(-c3cnn(C4CC4)c3)c3nc(N)nn3c2)cn1 [II-92, 8-(1-Cyclopropyl-1H-pyrazol-4-yl)-6-{1-[(1S)-1-phenylpropyl]-1H-pyrazol-4-yl}[1,2,4]triazolo[1,5-a]pyridin-2-amine]",IC50,LZK,150 nM
same,IC50,DLK,6.7 nM
Nc1nc2c(-c3ccn(CC(F)F)c(=O)c3)cc(-c3cnn(C(c4ccc(C(F)(F)F)nc4)C4CCOCC4)c3)cn2n1 (stereo not drawn) [II-172],IC50,LZK,11 nM
same,IC50,DLK,2.2 nM
"CCC(c1ccc(C(F)(F)F)nc1)n1cc(-c2cc(-c3ccc(=O)n(C(F)F)c3)n3nc(N)nc3c2)cn1 (single isomer, unassigned) [II-180, 5-[2-Amino-7-(1-{1-[6-(trifluoromethyl)pyridin-3-yl]propyl}-1H-pyrazol-4-yl)[1,2,4]triazolo[1,5-a]pyridin-5-yl]-1-(difluoromethyl)pyridin-2(1H)-one]",IC50,LZK,79 nM
same,IC50,DLK,34 nM
"Nc1nc2c(-c3cnn(CC(F)(F)F)c3)cc(-c3cnn(C(c4ccc(C(F)(F)F)nc4)C4CCOCC4)c3)cn2n1 (racemic) [II-117, 6-(1-{Tetrahydro-2H-pyran-4-yl[6-(trifluoromethyl)pyridin-3-yl]methyl}-1H-pyrazol-4-yl)-8-[1-(2,2,2-trifluoroethyl)-1H-pyrazol-4-yl][1,2,4]triazolo[1,5-a]pyridin-2-amine]",IC50,LZK,29 nM
same,IC50,DLK,3.8 nM
Nc1nc2cc(-c3cnn(C(c4ccc(C(F)(F)F)nc4)C4CCOCC4)c3)cc(-c3ccc(=O)n(CC(F)(F)F)c3)n2n1 (stereo not drawn) [II-191],IC50,LZK,6.3 nM
same,IC50,DLK,3.2 nM
"CC(C)(O)c1cccc(-c2cc(-c3cnn(C(c4ccc(C(F)(F)F)nc4)C4CCOCC4)c3)cn3nc(N)nc23)c1 (racemic) [II-10, 2-{3-[2-Amino-6-(1-{tetrahydro-2H-pyran-4-yl[6-(trifluoromethyl)pyridin-3-yl]methyl}-1H-pyrazol-4-yl)[1,2,4]triazolo[1,5-a]pyridin-8-yl]phenyl}propan-2-ol]",IC50,LZK,0.9 nM
same,IC50,DLK,0.7 nM
"Nc1nc2cc(-c3cnn(C(c4ccc(C(F)(F)F)nc4)C4CCOCC4)c3)cc(-c3ccnc(C(F)(F)F)c3)n2n1 (single isomer, unassigned) [II-35, 7-(1-{Tetrahydro-2H-pyran-4-yl[6-(trifluoromethyl)pyridin-3-yl]methyl}-1H-pyrazol-4-yl)-5-[2-(trifluoromethyl)pyridin-4-yl][1,2,4]triazolo[1,5-a]pyridin-2-amine]",IC50,LZK,44 nM
same,IC50,DLK,63 nM
"CC(C)C(c1ccc(C(F)(F)F)nc1)n1cc(-c2cc(-c3ccc(C(F)F)nc3)n3nc(N)nc3c2)cn1 (single isomer, unassigned) [II-72, 5-[6-(Difluoromethyl)pyridin-3-yl]-7-(1-{2-methyl-1-[6-(trifluoromethyl)pyridin-3-yl]propyl}-1H-pyrazol-4-yl)[1,2,4]triazolo[1,5-a]pyridin-2-amine]",IC50,LZK,17 nM
same,IC50,DLK,16 nM
"CC(C)C(c1ccc(C(F)F)nc1)n1cc(-c2cc(-c3ccc(OC(F)F)nc3)n3nc(N)nc3c2)cn1 (racemic) [II-49, 5-[6-(Difluoromethoxy)pyridin-3-yl]-7-(1-{1-[6-(difluoromethyl)pyridin-3-yl]-2-methylpropyl}-1H-pyrazol-4-yl)[1,2,4]triazolo[1,5-a]pyridin-2-amine]",IC50,LZK,84 nM
same,IC50,DLK,31 nM
Nc1nc2cc(-c3cnn(C(c4ccc(C(F)(F)F)nc4)C4CCOCC4)c3)cc(-c3ccc(=O)n(CC(F)F)c3)n2n1 (stereo not drawn) [II-185],IC50,LZK,2 nM
same,IC50,DLK,1.3 nM
"CCC(c1ccc(OC(F)(F)F)nc1)n1cc(-c2cc(-c3ccc(=O)n(CC(F)(F)F)c3)c3nc(N)nn3c2)cn1 (single isomer, unassigned) [II-165, 5-[2-Amino-6-(1-{1-[6-(trifluoromethoxy)pyridin-3-yl]propyl}-1H-pyrazol-4-yl)[1,2,4]triazolo[1,5-a]pyridin-8-yl]-1-(2,2,2-trifluoroethyl)pyridin-2(1H)-one]",IC50,LZK,57 nM
same,IC50,DLK,26 nM
"Nc1nc2cc(-c3cnn(Cc4ccccc4)c3)cc(-c3cnc(C4CC4)nc3)n2n1 [II-84, 7-(1-Benzyl-1H-pyrazol-4-yl)-5-(2-cyclopropylpyrimidin-5-yl)[1,2,4]triazolo[1,5-a]pyridin-2-amine]",IC50,LZK,290 nM
same,IC50,DLK,55 nM
"CC(C)C(c1ccc(C(F)(F)F)nc1)n1cc(-c2cc(-c3ccc(C(F)(F)F)nc3)c3nc(N)nn3c2)cn1 (racemic) [II-40, 6-(1-{2-Methyl-1-[6-(trifluoromethyl)pyridin-3-yl]propyl}-1H-pyrazol-4-yl)-8-[6-(trifluoromethyl)pyridin-3-yl][1,2,4]triazolo[1,5-a]pyridin-2-amine]",IC50,LZK,120 nM
same,IC50,DLK,44 nM
"Nc1nc2c(-c3cn(CC(F)(F)F)c(=O)cn3)cc(-c3cnn(C(c4ccc(C(F)(F)F)nc4)C4CCOCC4)c3)cn2n1 (single isomer, unassigned) [II-168, 5-[2-Amino-6-(1-{tetrahydro-2H-pyran-4-yl[6-(trifluoromethyl)pyridin-3-yl]methyl}-1H-pyrazol-4-yl)[1,2,4]triazolo[1,5-a]pyridin-8-yl]-1-(2,2,2-trifluoroethyl)pyrazin-2(1H)-one]",IC50,LZK,77 nM
same,IC50,DLK,17 nM
"CC[C@@H](c1ccccc1)n1cc(-c2cc(-c3cnn(C)c3)c3nc(N)nn3c2)cn1 [II-90, 8-(1-Methyl-1H-pyrazol-4-yl)-6-{1-[(1S)-1-phenylpropyl]-1H-pyrazol-4-yl}[1,2,4]triazolo[1,5-a]pyridin-2-amine]",IC50,LZK,230 nM
same,IC50,DLK,6.5 nM
Nc1nc2cc(-c3cnn(C(c4ccccc4)C4CCOCC4)c3)cc(-c3cnn(CC(F)(F)F)c3)n2n1 (stereo not drawn) [II-146],IC50,LZK,200 nM
same,IC50,DLK,3.6 nM
"CC[C@@H](c1ccc(C(F)(F)F)nc1)n1cc(-c2cc(-c3ccc(=O)n(CC(F)(F)F)c3)c3nc(N)nn3c2)cn1 [II-159, 5-[2-Amino-6-(1-{(1S)-1-[6-(trifluoromethyl)pyridin-3-yl]propyl}-1H-pyrazol-4-yl)[1,2,4]triazolo[1,5-a]pyridin-8-yl]-1-(2,2,2-trifluoroethyl)pyridin-2(1H)-one]",IC50,LZK,6.2 nM
same,IC50,DLK,2.4 nM
"CCC(c1ccc(C(F)(F)F)nc1)n1cc(-c2cc(-c3cnn(CC(F)(F)F)c3)c3nc(N)nn3c2)cn1 (single isomer, unassigned) [II-113, 8-[1-(2,2,2-trifluoroethyl)-1H-pyrazol-4-yl]-6-(1-{1-[6-(trifluoromethyl)pyridin-3-yl]propyl}-1H-pyrazol-4-yl)[1,2,4]triazolo[1,5-a]pyridin-2-amine]",IC50,LZK,59 nM
same,IC50,DLK,23 nM
CC[C@@H](c1ccc(F)cc1)n1cc(-c2cc(-c3cnn(CC(F)(F)F)c3)n3nc(N)nc3c2)cn1 [II-128],IC50,LZK,160 nM
same,IC50,DLK,15 nM
"Nc1nc2c(-c3cnn(CC4CC4(F)F)c3)cc(-c3cnn(Cc4ccccc4)c3)cn2n1 (racemic) [II-89, 6-(1-Benzyl-1H-pyrazol-4-yl)-8-{1-[(2,2-difluorocyclopropyl)methyl]-1H-pyrazol-4-yl}[1,2,4]triazolo[1,5-a]pyridin-2-amine]",IC50,LZK,39 nM
same,IC50,DLK,12 nM
"Nc1nc2cc(-c3cnn(C(c4ccc(C(F)F)nc4)C4CCOCC4)c3)cc(-c3ccc(C(F)(F)F)nc3)n2n1 (racemic) [II-76, 7-(1-{[6-(Difluoromethyl)pyridin-3-yl](tetrahydro-2H-pyran-4-yl)methyl}-1H-pyrazol-4-yl)-5-[6-(trifluoromethyl)pyridin-3-yl][1,2,4]triazolo[1,5-a]pyridin-2-amine]",IC50,LZK,16 nM
same,IC50,DLK,21 nM
"Nc1nc2c(-c3cc(CO)ccc3Cl)cc(-c3cnn(C(c4ccc(C(F)(F)F)nc4)C4CCOCC4)c3)cn2n1 (single isomer, unassigned) [II-6, {3-[2-Amino-6-(1-{tetrahydro-2H-pyran-4-yl[6-(trifluoromethyl)pyridin-3-yl]methyl}-1H-pyrazol-4-yl)[1,2,4]triazolo[1,5-a]pyridin-8-yl]-4-chlorophenyl}methanol]",IC50,LZK,6.7 nM
same,IC50,DLK,46 nM
CC(C)[C@@H](c1ccc(C(F)(F)F)nc1)n1cc(-c2cc(-c3cnn(C4CCCC4)c3)n3nc(N)nc3c2)cn1 [II-145],IC50,LZK,9.9 nM
same,IC50,DLK,3.3 nM
